Source: patent publication US11459330B2, “Substituted bicyclic heterocyclic compounds as PRMT5 inhibitors” (LUPIN LIMITED, priority 2017, dated 2022)

Key:
PRMT5:MEP50 = PRMT5:MEP50 (Homo sapiens, UniProt O14744); assay: PRMT5 biochemical HTRF assay (Biochemical Assay Protocol 1 / 2); settings: biotinylated H4R3 substrate, 1 μM SAM, protocol 1 or 2 not given, activity range 300 pM to 950 pM, read-out: IC50 (PRMT5 inhibition), activity range
Protocol: Biochemical Assay Protocol 1
(§1) Inhibitory effect of compounds on PRMT5 was assessed using HTRF detection technology in biochemical assay. Biotinylated H4R3 (residues 1-21) was used as a substrate. Compounds were pre-incubated with 15-25 ng PRMT5:MEP50 per well of a 384-well plate for 30 min at room temperature in the assay buffer containing 20 mM Bicine, pH 7.6, 25 mM NaCl, 2 mM DTT, 0.01% Chicken albumin and 0.01% Tween-20. Reaction was initiated by adding 1 μM of SAM and 50 nM biotinylated H4R3. Total assay volume was 15 μL. Reaction was continued for 120 min at room temperature. Then detection solution containing Streptavidin-Eu cryptate, anti-rabbit IgG-XL-665, Histone H4R3 Dimethyl Symmetric (H4R3me2s) Polyclonal Antibody, all prepared in HTRF detection buffer was added and further incubated for 30 min at room temperature. HTRF signal was recorded in PHERAStar microplate reader. Ratio of signal obtained at 665 nm and 620 nm was used to compute the percent inhibition of compound as follows % Inhibition=100−((Test Ratio−Negative control Ratio)/(Positive control Ratio−Negative control Ratio)*100) where Positive control=PRMT5+SAM+H4R3 Negative control=PRMT5+H4R3 Biochemical Assay Protocol 2
as §1, with “2.5” for “15-25”, “4 h” for “120 min”, “control=PRMT5+H4R3” for “control=PRMT5+H4R3 Biochemical Assay Protocol 2”

PANC-1 cells = assay: Anti-cancer assay (Panc-1), cell viability CellTiterGlo; type: cell-based; settings: Homo sapiens, PANC-1, 168 h, 7 days
Protocol: Anticancer Activity Assay
Z-138 cells were seeded at a density of 2000-3000 cells per well in culture media (IMDM+10% FBS). PANC-1 (ATCC, CRL-1469™) and MIA PaCa-2 (ATCC, CRL-1420™) cells were seeded at a density of 200-300 cells per well in culture media (DMEM+10% FBS). Cells were seeded in opaque, flat bottomed tissue culture grade 96-well plates and Z-138 cells (suspension) were seeded and treated on the same day with various concentrations of test compounds. PANC-1 and MIA PaCa-2 cells, being adherent, were kept for overnight settlement at standard cell culture conditions (37° C., 5% CO2). On the following day, cells were treated with various concentrations of test compounds. Cells were treated with test compounds for a period of 96 h, 7 days and 10 days, for Z-138 cells, PANC-1 cells and MIA PaCa-2 cells, respectively. Cell viability was assessed using CellTiterGlo™ (Promega, USA) as per manufacturer's instructions. Relative Light Units (RLU) were read in Synergy™ 2 reader (Biotek, USA). The assay measures cellular ATP as an indicator of cell viability. RLU is proportional to the number of viable cells in the respective well.
% inhibition of cell viability was calculated relative to the vehicle control samples containing media with 0.1% DMSO alone as per the formula below. (Avg. of Untreated Control−Avg. of Test)×100 Avg. of Untreated Control
The IC50 values of individual compounds were calculated with Non Linear Regression Analysis using Graph Pad Prism (Graph Pad software, Inc, USA).
Anti-Cancer Assay (Panc-1)

[1] = activity range, lower bound in pM, upper bound in nM

PRMT5:MEP50, sequence (O14744 whole entry): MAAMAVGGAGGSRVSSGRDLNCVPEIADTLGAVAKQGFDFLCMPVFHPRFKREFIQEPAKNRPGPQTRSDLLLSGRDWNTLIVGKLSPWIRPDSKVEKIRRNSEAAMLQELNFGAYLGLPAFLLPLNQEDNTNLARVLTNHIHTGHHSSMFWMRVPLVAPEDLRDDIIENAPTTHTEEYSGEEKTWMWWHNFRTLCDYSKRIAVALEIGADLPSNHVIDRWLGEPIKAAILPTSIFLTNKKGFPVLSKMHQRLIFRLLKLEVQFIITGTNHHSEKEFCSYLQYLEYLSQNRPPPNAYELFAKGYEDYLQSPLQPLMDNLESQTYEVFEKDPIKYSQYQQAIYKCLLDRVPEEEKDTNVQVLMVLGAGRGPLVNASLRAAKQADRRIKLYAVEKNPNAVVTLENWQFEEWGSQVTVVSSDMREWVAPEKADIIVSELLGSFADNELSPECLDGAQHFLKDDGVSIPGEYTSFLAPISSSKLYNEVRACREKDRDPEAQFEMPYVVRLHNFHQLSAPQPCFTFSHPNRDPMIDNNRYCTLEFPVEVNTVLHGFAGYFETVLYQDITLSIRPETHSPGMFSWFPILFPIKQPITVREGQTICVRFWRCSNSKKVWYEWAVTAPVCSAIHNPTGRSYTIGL
PRMT5:MEP50, sequence (Q9BQA1 whole entry partner): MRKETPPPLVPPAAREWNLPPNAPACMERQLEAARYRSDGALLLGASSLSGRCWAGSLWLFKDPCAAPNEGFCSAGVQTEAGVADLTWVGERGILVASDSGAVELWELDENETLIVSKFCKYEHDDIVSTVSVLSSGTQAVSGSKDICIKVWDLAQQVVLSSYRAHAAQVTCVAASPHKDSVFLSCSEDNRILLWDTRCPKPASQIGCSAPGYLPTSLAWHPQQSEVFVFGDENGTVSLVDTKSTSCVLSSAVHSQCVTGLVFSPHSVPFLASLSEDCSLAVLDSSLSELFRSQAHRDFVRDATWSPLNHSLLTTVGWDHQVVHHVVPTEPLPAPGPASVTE

Row | SMILES | IC50 (PRMT5:MEP50) | IC50 (PANC-1 cells; [1]) | IC50 (PANC-1 cells; activity range 20 nM to 100 nM)
1 | CC(Cc1ccc2cc(Br)c(N)nc2c1)C1=C[C@@H](n2ccc3c(N)ncnc32)[C@H](O)[C@@H]1O (single isomer, unassigned) [Compound-7a] | 0.3 to 0.95 nM | 300 to 20000 pM | 
2 | Cc1ncnc2c1ccn2[C@@H]1C=C(C(C)Cc2cc(F)c3cc(Cl)c(N)nc3c2)[C@@H](O)[C@H]1O (single isomer, unassigned) [Compound-35a] |  | 300 to 20000 pM | 
3 | Cc1ncnc2c1ccn2[C@@H]1C=C(C(C)Cc2cc(F)c3cc(Cl)c(N)nc3c2)[C@@](C)(O)[C@H]1O (single isomer, unassigned) [Compound-36a] | 0.3 to 0.95 nM |  | 
4 | CC(Cc1cc(F)c2cc(Br)c(N)nc2c1)C1=C[C@@H](n2ccc3c(N)ncnc32)[C@H](O)[C@@H]1O (single isomer, unassigned) [Compound-45a] | 0.3 to 0.95 nM |  | 
5 | CC(Cc1ccc2cc(Br)c(N)nc2c1)[C@@]12C[C@@H]1[C@@H](n1ccc3c(N)ncnc31)[C@H](O)[C@@H]2O (stereo partly drawn) [76b, (1S,2R,3S,4R,5S)-1-((S)-1-(2-Amino-3-bromoquinolin-7-yl)propan-2-yl)-4-(4-amino-7H-pyrrolo[2,3-d]pyrimidin-7-yl)bicyclo[3.1.0]hexane-2,3-diol] |  |  | 20000 to 100000 pM
6 | Nc1nc2cc(CCC3=C[C@@H](n4ccc5cnccc54)[C@H](O)[C@@H]3O)cc(F)c2cc1Cl [Compound-15, (1S,2R,5R)-3-(2-(2-Amino-3-chloro-5-fluoroquinolin-7-yl)ethyl)-5-(1H-pyrrolo[3,2-c]pyridin-1-yl)cyclopent-3-ene-1,2-diol] | 0.3 to 0.95 nM |  | 
7 | Nc1nc2cc(OCC3=C[C@@H](n4ccc5c(N)ncnc54)[C@H](O)[C@@H]3O)cc(F)c2cc1Cl [Compound-18, (1S,2R,5R)-3-(((2-amino-3-chloro-5-fluoroquinolin-7-yl)oxy)methyl)-5-(4-amino-7H-pyrrolo[2,3-d]pyrimidin-7-yl)cyclopent-3-ene-1,2-diol] | 0.3 to 0.95 nM | 300 to 20000 pM | 
8 | Nc1ncc2ccn([C@@H]3C=C(CCc4ccc5cc(Cl)c(N)nc5c4)[C@@H](O)[C@H]3O)c2n1 [Compound-30, (1S,2R,5R)-3-(2-(2-amino-3-chloroquinolin-7-yl)ethyl)-5-(2-amino-7H-pyrrolo[2,3-d]pyrimidin-7-yl)cyclopent-3-ene-1,2-diol] |  | 300 to 20000 pM | 
9 | C[C@@]1(O)C(CCc2cc(F)c3cc(Cl)c(N)nc3c2)=C[C@@H](n2ccc3c(N)ncnc32)[C@@H]1O [Compound-37, (1S,2R,5R)-3-(2-(2-amino-3-chloro-5-fluoroquinolin-7-yl)ethyl)-5-(4-amino-7H-pyrrolo[2,3-d]pyrimidin-7-yl)-2-methylcyclopent-3-ene-1,2-diol] | 0.3 to 0.95 nM | 300 to 20000 pM | 
10 | CC(Cc1cc(F)c2cc(Cl)c(N)nc2c1)C1=C[C@@H](n2ccc3c(N)ncnc32)[C@H](O)[C@]1(C)O (stereo partly drawn) [Compound-38, (1S,2R,5R)-3-(1-(2-amino-3-chloro-5-fluoroquinolin-7-yl)propan-2-yl)-5-(4-amino-7H-pyrrolo[2,3-d]pyrimidin-7-yl)-2-methylcyclopent-3-ene-1,2-diol] | 0.3 to 0.95 nM | 300 to 20000 pM | 
11 | CC[C@@]1(O)C(CCc2cc(F)c3cc(Cl)c(N)nc3c2)=C[C@@H](n2ccc3c(N)ncnc32)[C@@H]1O [Compound-40, (1S,2R,5R)-3-(2-(2-amino-3-chloro-5-fluoroquinolin-7-yl)ethyl)-5-(4-amino-7H-pyrrolo[2,3-d]pyrimidin-7-yl)-2-ethylcyclopent-3-ene-1,2-diol] |  | 300 to 20000 pM | 
12 | CCc1ncnc2c1ccn2[C@@H]1C=C(CCc2cc(F)c3cc(Cl)c(N)nc3c2)[C@@H](O)[C@H]1O [Compound-41, (1S,2R,5R)-3-(2-(2-amino-3-chloro-5-fluoroquinolin-7-yl)ethyl)-5-(4-ethyl-7H-pyrrolo[2,3-d]pyrimidin-7-yl)cyclopent-3-ene-1,2-diol] |  | 300 to 20000 pM | 
13 | Cc1ncnc2c1ccn2[C@@H]1C=C(CCc2cc(F)c3cc(Br)c(N)nc3c2)[C@@H](O)[C@H]1O [Compound-44, (1S,2R,5R)-3-(2-(2-Amino-3-bromo-5-fluoroquinolin-7-yl)ethyl)-5-(4-methyl-7H-pyrrolo[2,3-d]pyrimidin-7-yl)cyclopent-3-ene-1,2-diol] | 0.3 to 0.95 nM |  | 
14 | Cc1cc2ccc(CC[C@@]34C[C@@H]3[C@@H](n3ccc5c(N)ncnc53)[C@H](O)[C@@H]4O)cc2nc1N [Compound-54, (1R,2R,3S,4R,5S)-1-(2-(2-Amino-3-methylquinolin-7-yl)ethyl)-4-(4-amino-7H-pyrrolo[2,3-d]pyrimidin-7-yl) bicyclo[3.1.0]hexane-2,3-diol] |  | 300 to 20000 pM | 

Continued, values first:

Row | IC50 (PRMT5:MEP50) | IC50 (PANC-1 cells; [1]) | IC50 (PANC-1 cells; activity range 20 nM to 100 nM) | SMILES
15 | 0.3 to 0.95 nM | 300 to 20000 pM |  | CC(Cc1ccc2cc(Cl)c(N)nc2c1)C1=C[C@@H](n2ccc3c(N)ncnc32)[C@H](O)[C@@H]1O (single isomer, unassigned) [Compound-34b]
16 | 0.3 to 0.95 nM | 300 to 20000 pM |  | Nc1nc2cc(CCC3=C[C@@H](n4ccc5c(N)ncnc54)[C@H](O)[C@@H]3O)ccc2cc1Br [Compound-1, (1S,2R,5R)-3-(2-(2-Amino-3-bromoquinolin-7-yl)ethyl)-5-(4-amino-7H pyrrolo[2,3-d]pyrimidin-7-yl)cyclopent-3-ene-1,2-diol]
17 | 0.3 to 0.95 nM | 300 to 20000 pM |  | Nc1nc2cc(CCC3=C[C@@H](n4ccc5c(N)ncnc54)[C@H](O)[C@@H]3O)ccc2cc1Cl [Compound-2, (1S,2R,5R)-3-(2-(2-amino-3-chloroquinolin-7-yl)ethyl)-5-(4-amino-7H-pyrrolo[2,3-d]pyrimidin-7-yl)cyclopent-3-ene-1,2-diol]
18 | 0.3 to 0.95 nM | 300 to 20000 pM |  | Cc1ncnc2c1ccn2[C@@H]1C=C(CCc2ccc3cc(Cl)c(N)nc3c2)[C@@H](O)[C@H]1O [Compound-21, (1S,2R,5R)-3-(2-(2-amino-3-chloroquinolin-7-yl)ethyl)-5-(4-methyl-7H-pyrrolo[2,3-d]pyrimidin-7-yl)cyclopent-3-ene-1,2-diol]
19 | 0.3 to 0.95 nM |  |  | Nc1nc2cc(CCC3=C[C@@H](n4ccc5c(N)ncnc54)[C@H](O)[C@@H]3O)ccc2cc1F [Compound-23, (1S,2R,5R)-3-(2-(2-Amino-3-fluoroquinolin-7-yl)ethyl)-5-(4-amino-7H-pyrrolo[2,3-d]pyrimidin-7-yl)cyclopent-3-ene-1,2-diol]
20 |  |  | 20000 to 100000 pM | Nc1nc2cc(CCC3=C[C@@H](n4ccc5c(N)ncnc54)[C@H](O)[C@@H]3O)cc(Cl)c2cc1Cl [Compound-29, (1S,2R,5R)-3-(2-(2-amino-3,5-dichloroquinolin-7-yl)ethyl)-5-(4-amino-7H-pyrrolo[2,3-d]pyrimidin-7-yl)cyclopent-3-ene-1,2-diol]
21 | 0.3 to 0.95 nM | 300 to 20000 pM |  | Nc1nc2cc(CCC3=C[C@@H](n4ccc5c(N)ncnc54)[C@H](O)[C@@H]3O)cc(F)c2cc1Br [Compound-43, (1S,2R,5R)-3-(2-(2-Amino-3-bromo-5-fluoroquinolin-7-yl)ethyl)-5-(4-amino-7H-pyrrolo[2,3-d]pyrimidin-7-yl)cyclopent-3-ene-1,2-diol]
22 |  | 300 to 20000 pM |  | Nc1ccc2cc(F)c(CCC3=C[C@@H](n4ccc5c(N)ncnc54)[C@H](O)[C@@H]3O)cc2n1 [Compound-46, (1S,2R,5R)-3-(2-(2-Amino-6-fluoroquinolin-7-yl)ethyl)-5-(4-amino-7H-pyrrolo[2,3-d]pyrimidin-7-yl)cyclopent-3-ene-1,2-diol]
